Measurements reported in publication PMC12426922, “Fingerprinting the Intestinal Transport of Low-Molecular-Mass Advanced Glycation End-Products (AGEs) Using a Caco‑2 Transwell Model” (Journal of Agricultural and Food Chemistry, 2025).
Several values for one entry are separate records, joined by “and”; a condition that tells them apart may be missing. Equal values may be shown once. Read-outs that look alike come from different tables or passages of the source. Marks after values point to notes of the source that are not given here.

Tests used:
PepT1 = assay: Transport of AGE mixture across Caco-2 cell layer (transwell, apical to basolateral); format: in vitro ADME, Human; conditions: human, mixture, each AGE 100 μmol/L
Experimental: (§1) Human colon carcinoma cells (Caco-2 cells) were obtained from the American Type Culture Collection (ATCC, Rockville, MD, USA). Caco-2 cells were cultured in complete culture medium, composed of DMEM GlutaMAX with 10% FBS (v/v), 1% P/S (v/v), and 1% NEAA (v/v) at 37 °C in a 5% (v/v) CO2 incubator. In this study, Caco-2 cells within passages 10–15 were utilized.
(§2) Caco-2 cells were cultured until reaching 50%–60% confluence (undifferentiated Caco-2 cells), followed by trypsinization. Then, cells were seeded at 3 × 10^4 cells per insert in 100 μL of complete culture medium into the transwell inserts of a 24-well transwell plate, and 600 μL of complete culture medium was added to the basolateral compartments. In both the apical and basolateral compartments, the medium was renewed every other day. After 2 weeks, the transepithelial electrical resistance (TEER) value was measured using a Millicell ERS-2 Electrical Resistance System (Burlington, MA, USA) every other day. Only wells with a TEER value of >400 Ω/cm^2 were used for transport experiments. Moreover, the TEER value was measured before and after the transport experiment to ascertain that the Caco-2 cell layer remained intact during the whole transport experiment.
(§3) Transport experiments were performed after 20 days of differentiation of the Caco-2 cells. The culture medium was replaced with HBSS (containing 1% (v/v) HEPES) 30 min prior to testing in both the apical and basolateral compartments. After the 30 min preincubation, 100 μL of HBSS containing a mixture of the 10 different AGEs including CML, CEL, GALA, argpyrimidine, MG-H1, GOLD, GOLA, MOLD, pentosidine, and pyrraline, each at 100 μmol/L, was added to the apical compartment after removing the preincubation medium, while the basolateral medium was replaced by 600 μL of HBSS. […] At 120 min, a 10 μL sample from the apical side was taken for calculating apical side retention (nontransported percentage).
(§4) The apparent permeability coefficient (Papp) value was calculated according to the methodology described by Yee.
(§5) AGEs were quantified by LC-MS using a Shimadzu Nexera XR LC-40D XR UPLC system (Kyoto, Japan) equipped with a UPLC Amide column (100 mm × 2.1 mm, 1.7 μm) without derivatization coupled with a Shimadzu LCMS-8045 triple quadrupole mass spectrometer (Kyoto, Japan). The analytical column was maintained at 40 °C throughout the quantification process. A multistep binary gradient system of water containing 0.1% (v/v) formic acid (solvent A) and acetonitrile containing 0.1% (v/v) formic acid (solvent B) was used. In the whole gradient program, the total proportion of solvents A and B is always equal to 100%. The gradient program was designed as follows: 75% solvent B to 12.5% solvent B from 0 to 10 min, followed by 12.5% solvent B from 10 to 11 min. […] The initial flow rate was set to 0.30 mL/min. Subsequently, it was reduced to 0.25 mL/min at 0.3 min, which was kept until 10 min. Afterward, there was a gradual decrease, reaching 0.15 mL/min at 11 min, and this rate was maintained until 12 min. […] Between 1 and 11 min of gradient running, the line was set to MS, and for the other time periods, the line was set to waste. The retention time and mass spectrometry parameters of individual AGEs are listed in Table S1 and the chromatograms of the samples are shown in Figure S1.

[1] = as above; format: in vitro ADME, Human; conditions: human; for recovery at 2 h, 100 μmol/L: read-out: percentage of the amount added at the apical side at t = 0: recovery; for Papp at 120 min, 100 μmol/L: data from 120 min
Experimental: as §1, §2, §3, §4, §5

Caco-2 cell layer = assay: as above; format: in vitro ADME, Human
Experimental: as §1, §2, §3, §4, §5

[2] = tested on: differentiated Caco-2 cells; assay: WST-1 cytotoxicity assay, viability of differentiated Caco-2 cells after 2 h exposure; format: cell-based, Human
Experimental: as §1
The WST-1 assay was used to quantify the viability of differentiated Caco-2 cells upon exposure to the individual AGEs and their equimolar mixture. To this end, Caco-2 cells were seeded in 96-well plates at 3 × 10^4 cells/well (100 μL) and incubated at 37 °C under 5% (v/v) CO2 for 20 days. The complete culture medium was refreshed on each alternate day. After full differentiation, the culture medium was removed, and the cells were washed with HBSS (containing 1% (v/v) HEPES) twice on the testing day. The same volume (100 μL) of HBSS containing a series of concentrations of the different individual test compounds or of a mixture containing all 10 AGEs was added from a 20-times-concentrated stock solution in HBSS. The test concentrations were designed based on the estimated daily intake of total AGEs (0.55–0.66 mg/(kg·day)) and high-exposure scenarios (1.4–1.8 mg/(kg day)). […] After exposure for 2 h, the absorbance at 440 and 620 nm was measured in a plate spectrophotometer (Molecular Devices, San Jose, CA, USA, Spectra Max M2). After measurement, the cell viability was calculated as cell viability (%)=(Atested 440 nm−Atested 620 nm)/(Acontrol 440 nm−Acontrol 620 nm)×100

Caco-2 cell monolayer [3] = tested on: Caco-2 cell monolayer; design: method as in our previous study; conditions: CML in single testing; ref our previous study; cited from earlier work
Caco-2 cell monolayer [4] = assay: Accumulation of AGEs in the Caco-2 cell monolayer after transport experiment; format: in vitro ADME, Human; conditions: mixture, each AGE 100 μmol/L, 2 h
Experimental: After the transport experiment, the cell monolayer on the inset membrane was washed three times with HBSS and three times with PBS. […] The samples were subsequently centrifuged at 16 000g for 20 min at 4 °C, and the supernatant was collected for further analysis by LC-MS.
as §5, with “The” for “AGEs were quantified by LC-MS using a Shimadzu Nexera XR LC-40D XR UPLC system (Kyoto, Japan) equipped with a UPLC Amide column (100 mm × 2.1 mm, 1.7 μm) without derivatization coupled with a Shimadzu LCMS-8045 triple quadrupole mass spectrometer (Kyoto, Japan). The”, “100%.” for “100%. The gradient program was designed as follows: 75% solvent B to 12.5% solvent B from 0 to 10 min, followed by 12.5% solvent B from 10 to 11 min.”

[5] = Caco-2, 4 °C, mixture, each AGE 100 μmol/L
[6] = 4 °C, mixture, each AGE 100 μmol/L, 2 h
[7] = Gly-Sar 10 mmol/L, mixture, each AGE 100 μmol/L, 2 h
[8] = cytochalasin D pretreatment, mixture, each AGE 100 μmol/L, 2 h
[9] = standard treatment, mixture, each AGE 100 μmol/L, 2 h

Question: With `N[C@@H](CCCCNCC(=O)O)C(=O)O` [CML, N-ε-(carboxymethyl)-lysine] as the molecule, how does the recovery at 2 h, 100 μmol/L (PepT1; Caco-2, with Gly-Sar 10 mmol/L (apical compartment), Gly-Sar 10 mmol/L, 2 h, read-out: percentage of the amount added at the apical side at t = 0: recovery) read?
Answer: 92.7 ± 3.1%

Question: What about the Papp at 120 min, 100 μmol/L (PepT1; Caco-2, with Gly-Sar 10 mmol/L (apical), 10 mmol/L Gly-Sar apical (PepT1 inhibition), data from 120 min) of the same molecule?
Answer: 0.207 ×10⁻⁶ cm/s

Question: What about the recovery at 2 h, 100 μmol/L [1, 5] of the same molecule?
Answer: 90 ± 5.3%

Question: And the Papp at 120 min, 100 μmol/L [1, 5]?
Answer: 0.105 ×10⁻⁶ cm/s

Question: What about the recovery at 2 h, 100 μmol/L ([1]; Caco-2, cytochalasin D pretreatment, mixture, each AGE 100 μmol/L) of the same molecule?
Answer: 96.9 ± 5.8%

Question: And the Papp at 120 min, 100 μmol/L ([1]; Caco-2, standard treatment (37 °C), equimolar mixture of 10 AGEs, each 100 μmol/L apical)?
Answer: 0.219 ×10⁻⁶ cm/s

Question: What about the recovery at 2 h, 100 μmol/L ([1]; Caco-2, standard treatment, mixture, each AGE 100 μmol/L) of the same molecule?
Answer: 93.1 ± 6.1%

Question: And the Papp at 120 min, 100 μmol/L ([1]; Caco-2, cytochalasin D 1 μg/mL, 30 min apical preincubation, mixture, each AGE 100 μmol/L)?
Answer: 0.561 ×10⁻⁶ cm/s

Question: What about the “effect of 4 °C on transport compared to 37 °C” value (Caco-2 cell layer; 4 °C versus 37 °C) of the same molecule?
Answer: significantly reduced

Question: And the “percentage of the amount added at the apical side at t = 0: apical side” value (Caco-2 cell layer; [6])?
Answer: 89.4 ± 5.3 ^a %

Question: And the “percentage of the amount added at the apical side at t = 0: basolateral side” value (Caco-2 cell layer; [6])?
Answer: 0.3 ± 0.1 ^b %

Question: What about the “percentage of the amount added at the apical side at t = 0: apical side” value (Caco-2 cell layer; [7]) of the same molecule?
Answer: 86.2 ± 3.6 ^a %

Question: And the “percentage of the amount added at the apical side at t = 0: basolateral side” value (Caco-2 cell layer; [7])?
Answer: 0.5 ± 0.1 ^b %

Question: What about the “percentage of the amount added at the apical side at t = 0: apical side” value (Caco-2 cell layer; [8]) of the same molecule?
Answer: 91.8 ± 5.7 ^a %

Question: What about the “percentage of the amount added at the apical side at t = 0: basolateral side” value (Caco-2 cell layer; [8]) of the same molecule?
Answer: 1.3 ± 0.6 ^a %

Question: And the “Papp value in the mixture as percentage of the Papp value tested in isolation in previous study” value (Caco-2 cell layer; mixture versus compound in isolation (our previous study))?
Answer: 57%

Question: And the “percentage of the amount added at the apical side at t = 0: apical side (nontransported)” value (Caco-2 cell layer; [9])?
Answer: 89.0 ± 6.1 ^a %

Question: What about the “percentage of the amount added at the apical side at t = 0: basolateral side (transported)” value (Caco-2 cell layer; [9]) of the same molecule?
Answer: 0.5 ± 0.3 ^b %

Question: And the “effect on cell viability” value [2]?
Answer: did not affect cell viability up to the highest concentration tested

Question: And the intracellular accumulation (Caco-2 cell monolayer [3])?
Answer: 4.5%

Question: And the “percentage of the amount added at the apical side at t = 0: accumulation” value (Caco-2 cell monolayer [4]; 4 °C)?
Answer: 0.3 ± 0.3 ^c %

Question: And the “percentage of the amount added at the apical side at t = 0: accumulation” value (Caco-2 cell monolayer [4]; Gly-Sar 10 mmol/L)?
Answer: 6.0 ± 2.1 ^a %

Question: And the “percentage of the amount added at the apical side at t = 0: accumulation” value (Caco-2 cell monolayer [4]; cytochalasin D pretreatment)?
Answer: 3.8 ± 0.9 ^b %

Question: And the “percentage of the amount added at the apical side at t = 0: accumulation (intracellular)” value (Caco-2 cell monolayer [4]; standard treatment)?
Answer: 3.5% and 3.5 ± 0.6 ^b %
